Data taken from patent US9931629B2, “Substance exposure apparatus” (The University of Queensland, priority 2011, dated 2018).
Entries after “also recorded” stand apart in the source; their conditions may differ.

Tests used:
Assay type in all cases: cell-based, human
[1] = test system: HES3-MIXL1-GFP hESCs; test: Primitive streak differentiation screening in array of BIO, BMP-4 and Activin A (MIXL1-GFP reporter)
Description: Cells were allowed to attach to the well array 330 for 8-10 h in an incubator (37° C., 5% CO2 in air), then subjected to continuous fluid flow under the specified factor conditions at 60 μL/h total flowrate.
Serial exchange of staining and washing solutions was driven by a syringe pump.
Spot intensities in each channel were linearly transformed about the mean and standard deviation for all spots in that channel in an individual array, by IEOS-GFP=(TEOS-GFP−μEOS-GFP)/σEOS-GFP, where IEOS-GFP is the expression index of EOS-GFP, and μEOS-GFP is the mean and σEOS-GFP the standard deviation of all TEOS-GFP for a particular array. This provides expression indices (IEOS-GFP, IMIXL1-GFP) rating each spot's intensity in terms of global standard deviations relative to the global mean.
Factorial analyses are performed on expression index data with MINITAB 15 software (Minitab Inc.). Expression indices were designated as response variables and soluble factors designated as inputs. A fourth input variable, ‘Position’, was defined based on each culture well's row coordinate in the array. Effect magnitudes were then generated by MINITAB according to methods described elsewhere^45. Pearson product-moment correlation coefficients (rX,Y), coefficients of determination for linear regression (R^2), and Student's t-test statistics were calculated with Microsoft Excel. For Student's t-tests, two-tailed tests were performed for two samples assuming unequal variances, and differences with p<0.05 were considered significant.
HES3-MIXL1-GFP hESCs (also, HES3 MIXL1^GFP/w hESCs; karyotying and in vivo teratomas) growing as a monolayer were differentiated under continual flow in the apparatus 300 for 2.5 d in a full-factorial array of BMP-4, Activin A, and the GSK-3β inhibitor/canonical Wnt activator 6-bromoindirubin-3′-oxime (BIO) in RPMI B27 medium. A screening panel showing array conditions is shown in FIG. 6A, with numbers indicating concentrations of BIO (μM), BMP-4 (ng/mL) and Activin A (ng/mL).

[2] = test system: HES3-MIXL1-GFP hESCs; test: Static primitive streak induction cultures with chemical modulation of Wnt signals
Description: HES3-MIXL1-GFP hESCs maintained in mTeSR-1/Matrigel cultures were detached with TrypLE Express, seeded at 7.5×10^4 cells/cm^2 into 24-well plates coated with a limiting dilution of hESC-qualified Matrigel and allowed to attach overnight, after which cultures were typically ˜60% confluent. MIXL1-GFP expression was then induced by differentiating in RPMI B27 medium with 10 ng/ml BMP-4 and 6 ng/ml Activin A (both R&D Systems) for 2.5 d with optional addition of 5 μM IWP-4 and 5 μM CHIR99021 (both Stemgent), or 0.1% v/v DMSO vehicle control.
Although such paracrine factor dependencies and negative feedback signals regulating mesendoderm specification are clearly necessary developmental drivers in a transient in vivo structure such as primitive streak, they inevitably reduce efficiency of in vitro differentiation. It was therefore tested whether the outcomes of modulating positive and negative paracrine regulators in the array could be translated to optimise directed differentiation protocols in conventional static cultures.

[3] = test system: HES3-MIXL1-GFP hESCs; test: Primitive streak array screening of CHIR99021, conditioned medium and IWP-4 (MIXL1-GFP reporter); conditions: background RPMI B27 with 10 ng/mL BMP-4 and 6 ng/mL Activin A, continuous flow
Description: For use in apparatus 300, conditioned medium was recovered from static controls differentiated in 10 ng/mL BMP-4 and 6 ng/mL Activin A in RPMI B27 medium. Cells were removed by centrifugation and supernatant medium stored at 4° C. Media from days 1 and 2 were mixed and BMP-4 and Activin A re-supplemented at 50% of nominal levels before use in arrays.

[4] = 2.5 d, continual flow, RPMI B27 medium

Q: What does the source list for `O=C1Nc2cc(Br)ccc2/C1=C1/Nc2ccccc2/C1=N\O` [BIO, 6-bromoindirubin-3′-oxime]?
A: optimum concentration for expression index IMIXL1-GFP (factorial analysis) ([1]; 2.5 d, continual flow, RPMI B27 medium, levels 0, 1, 2 μM): 1 µM; number of rows over which bright MIXL1-GFP expression extended ([1]; column 15: 1 μM BIO with 10 ng/mL BMP-4, 6 ng/mL Activin A, single peak at row 7 without BIO): 4-5 rows

Q: How did the MIXL1 induction ([2]; static controls, FIG. 7H, 5 μM IWP-4) turn out when `COc1ccccc1-n1c(SCC(=O)Nc2nc3ccc(C)cc3s2)nc2c(c1=O)SCC2` [IWP-4] was run?
A: completely blocked MIXL1 induction

Q: With `Cc1c[nH]c(-c2cnc(NCCNc3ccc(C#N)cn3)nc2-c2ccc(Cl)cc2Cl)n1` [CHIR99021] as the molecule, how does the “MIXL1-GFP induction, % of cells” value ([2]; 5 μM CHIR99021 added to RPMI B27+10 ng/mL BMP-4+6 ng/mL Activin A, 2.5 d, 51% under standard conditions) read?
A: 86%

Q: And the “effect on MIXL1-GFP expression level and position in the array” value [3]?
A: only shifted expression up marginally; also recorded: produced an extended streak of MIXL1-GFP expression

Q: And the “effect on MIXL1-GFP expression level and position in the array” value ([3]; listed as CHIR)?
A: both improved the expression level and broadened the number of rows over which appreciable expression extended

B1: BMP-4: soluble growth factor (R&D Systems) used for primitive streak induction (protein, UniProt P12644 293-408, looked up)
Bone morphogenetic protein 4: SPKHHSQRARKKNKNCRRHSLYVDFSDVGWNDWIVAPPGYQAFYCHGDCPFPLADHLNSTNHAIVQTLVNSVNSSIPKACCVPTELSAISMLYLDEYDKVVLKNYQEMVVEGCGCR
Q: For B1, which “optimum concentration for expression index IMIXL1-GFP (factorial analysis)” value [1, 4] is on record?
A: 10 ng/mL

B2: Activin A: soluble growth factor (R&D Systems) used for primitive streak induction (protein, UniProt P08476 311-426, looked up)
Inhibin beta A chain: GLECDGKVNICCKKQFFVSFKDIGWNDWIIAPSGYHANYCEGECPSHIAGTSGSSLSFHSTVINHYRMRGHSPFANLKSCCVPTKLRPMSMLYYDDGQNIIKKDIQNMIVEECGCS
Q: With B2 as the molecule, how does the “dependence of expression index IMIXL1-GFP on factor (factorial analysis)” value [1, 4] read?
A: linear, positive dependence
